According to ChEMBL document CHEMBL4828726, “Modification of 5-methylphenanthridium from benzothiazoles to indoles as potent FtsZ inhibitors: Broadening the antibacterial spectrum toward vancomycin-resistant enterococci” (Eur J Med Chem, 2021):

Columns and labels:
Format in all cases: functional
Bacillus subtilis [1] = experiment: Antibacterial activity against penicillin-susceptible Bacillus subtilis ATCC 9372 assessed as inhibition of bacterial growth measured after 20 hrs by two-fold microdilution assay
Bacillus pumilus [2] = experiment: Antibacterial activity against penicillin-susceptible Bacillus pumilus CMCC63202 assessed as inhibition of bacterial growth measured after 20 hrs by two-fold microdilution assay
Staphylococcus aureus [3] = experiment: Antibacterial activity against erythromycin-susceptible Staphylococcus aureus ATCC 25923 assessed as inhibition of bacterial growth measured after 20 hrs by two-fold microdilution assay
Streptococcus pyogenes [4] = experiment: Antibacterial activity against erythromycin-susceptible Streptococcus pyogenes assessed as inhibition of bacterial growth measured after 20 hrs by two-fold microdilution assay
Escherichia coli = experiment: Antibacterial activity against penicillin-susceptible Escherichia coli ATCC 25922 assessed as inhibition of bacterial growth measured after 20 hrs by two-fold microdilution assay
Pseudomonas aeruginosa = experiment: Antibacterial activity against penicillin-susceptible Pseudomonas aeruginosa ATCC 27853 assessed as inhibition of bacterial growth measured after 20 hrs by two-fold microdilution assay
Staphylococcus aureus [5] = experiment: Antibacterial activity against methicillin-resistant Staphylococcus aureus ATCC43300 assessed as inhibition of bacterial growth measured after 20 hrs by two-fold microdilution assay
Staphylococcus aureus [6] = experiment: Antibacterial activity against penicillin-resistant Staphylococcus aureus ATCC 31007 assessed as inhibition of bacterial growth measured after 20 hrs by two-fold microdilution assay
Staphylococcus aureus [7] = experiment: Antibacterial activity against clinical isolate Staphylococcus aureus C1 assessed as inhibition of bacterial growth measured after 20 hrs by two-fold microdilution assay
Streptococcus pyogenes [8] = experiment: Antibacterial activity against erythromycin-resistant Streptococcus pyogenes assessed as inhibition of bacterial growth measured after 20 hrs by two-fold microdilution assay
[9] = test system: Staphylococcus epidermidis; experiment: Antibacterial activity against penicillin-resistant Staphylococcus epidermidis assessed as inhibition of bacterial growth measured after 20 hrs by two-fold microdilution assay
Enterococcus faecalis [10] = experiment: Antibacterial activity against Vancomycin-susceptible Enterococcus faecalis ATCC 29212 assessed as inhibition of bacterial growth measured after 20 hrs by two-fold microdilution assay
Enterococcus faecium [11] = experiment: Antibacterial activity against Vancomycin-susceptible Enterococcus faecium ATCC 19434 assessed as inhibition of bacterial growth measured after 20 hrs by two-fold microdilution assay
Enterococcus faecium [12] = experiment: Antibacterial activity against Vancomycin-resistant Enterococcus faecium ATCC 51559 assessed as inhibition of bacterial growth measured after 20 hrs by two-fold microdilution assay
Enterococcus faecalis [13] = experiment: Antibacterial activity against Vancomycin-resistant Enterococcus faecalis ATCC 51299 assessed as inhibition of bacterial growth measured after 20 hrs by two-fold microdilution assay
Bacillus subtilis [14] = experiment: Bactericidal activity against penicillin-susceptible Bacillus subtilis ATCC 9372 assessed as inhibition of bacterial growth measured after 20 hrs by two-fold microdilution assay
Bacillus pumilus [15] = experiment: Bactericidal activity against penicillin-susceptible Bacillus pumilus CMCC63202 assessed as inhibition of bacterial growth measured after 20 hrs by two-fold microdilution assay
Staphylococcus aureus [16] = experiment: Bactericidal activity against erythromycin-susceptible Staphylococcus aureus ATCC 25923 assessed as inhibition of bacterial growth measured after 20 hrs by two-fold microdilution assay
Staphylococcus aureus [17] = experiment: Bactericidal activity against methicillin-resistant Staphylococcus aureus ATCC43300 assessed as inhibition of bacterial growth measured after 20 hrs by two-fold microdilution assay
Staphylococcus aureus [18] = experiment: Bactericidal activity against penicillin-resistant Staphylococcus aureus ATCC 31007 assessed as inhibition of bacterial growth measured after 20 hrs by two-fold microdilution assay
Bacillus subtilis [19] = experiment: Ratio of MBC to MIC against penicillin-susceptible Bacillus subtilis ATCC 9372
Bacillus pumilus [20] = experiment: Ratio of MBC to MIC against penicillin-susceptible Bacillus pumilus CMCC63202
Staphylococcus aureus [21] = experiment: Ratio of MBC to MIC against erythromycin-susceptible Staphylococcus aureus ATCC 25923
Staphylococcus aureus [22] = experiment: Ratio of MBC to MIC against methicilline-resistant Staphylococcus aureus ATCC43300
Enterococcus faecalis [23] = experiment: Bactericidal activity against Vancomycin-susceptible Enterococcus faecalis ATCC 29212 assessed as inhibition of bacterial growth measured after 20 hrs by two-fold microdilution assay
Enterococcus faecium [24] = experiment: Bactericidal activity against Vancomycin-susceptible Enterococcus faecium ATCC 19434 assessed as inhibition of bacterial growth measured after 20 hrs by two-fold microdilution assay
Enterococcus faecium [25] = experiment: Bactericidal activity against Vancomycin-resistant Enterococcus faecium ATCC 51559 assessed as inhibition of bacterial growth measured after 20 hrs by two-fold microdilution assay
Enterococcus faecalis [26] = experiment: Bactericidal activity against Vancomycin-resistant Enterococcus faecalis ATCC 51299 assessed as inhibition of bacterial growth measured after 20 hrs by two-fold microdilution assay

Row | Compound | MIC (Bacillus subtilis [1]) | MIC (Bacillus pumilus [2]) | MIC (Staphylococcus aureus [3]) | MIC (Streptococcus pyogenes [4]) | MIC (Escherichia coli) | MIC (Pseudomonas aeruginosa) | MIC (Staphylococcus aureus [5]) | MIC (Staphylococcus aureus [6]) | MIC (Staphylococcus aureus [7]) | MIC (Streptococcus pyogenes [8]) | MIC [9] | MIC (Enterococcus faecalis [10]) | MIC (Enterococcus faecium [11]) | MIC (Enterococcus faecium [12]) | MIC (Enterococcus faecalis [13]) | MBC (Bacillus subtilis [14]) | MBC (Bacillus pumilus [15]) | MBC (Staphylococcus aureus [16]) | MBC (Staphylococcus aureus [17]) | MBC (Staphylococcus aureus [18]) | further results
1 | Cc1ccc2c[n+](C)c3ccc(-c4ccc5ccn(Cc6ccccc6)c5c4)cc3c2c1.[Cl-] | 2 µg/mL | 4 µg/mL | 2 µg/mL | 4 µg/mL | > 64 µg/mL | > 64 µg/mL | 4 µg/mL | 4 µg/mL | 2 µg/mL | 4 µg/mL | 8 µg/mL | 8 µg/mL | 4 µg/mL | 4 µg/mL | 16 µg/mL | 4 µg/mL | 64 µg/mL | 32 µg/mL | 16 µg/mL | 64 µg/mL | Ratio (Bacillus subtilis [19]): 2; Ratio (Bacillus pumilus [20]): 16; Ratio (Staphylococcus aureus [21]): 16; Ratio (Staphylococcus aureus [22]): 4
2 | C[n+]1cc2c3c(ccc2c2ccc4cc5c(cc4c21)OCO5)OCO3 [SANGUINARIUM] | 2 µg/mL | 4 µg/mL | 4 µg/mL | 2 µg/mL | 32 µg/mL | > 64 µg/mL | 8 µg/mL | 16 µg/mL | 4 µg/mL | 2 µg/mL | 8 µg/mL | 16 µg/mL | 64 µg/mL | 32 µg/mL | 32 µg/mL | > 128 µg/mL | 32 µg/mL | 128 µg/mL | 128 µg/mL | > 64 µg/mL | Ratio (Bacillus pumilus [20]): 8; Ratio (Staphylococcus aureus [21]): 32; Ratio (Staphylococcus aureus [22]): 16; MBC (Enterococcus faecalis [23]): > 64 µg/mL; MBC (Enterococcus faecium [24]): > 64 µg/mL; MBC (Enterococcus faecium [25]): > 64 µg/mL; MBC (Enterococcus faecalis [26]): > 64 µg/mL
